The values that follow come from EP0574185B1, “PGE1 analogs” (NEWPHARMA INTERNATIONAL CORPORATION, priority 1992, dated 1993).

Structures are written as SMILES.

The test system of one data set is anesthetized rat. Kind of data set: Blood pressure and heart rate in anesthetized rat. It counts as in vivo, male Wistar rats. Particulars: i.v.; for HR (Heart Rate): basal 440,8 ± 9,7; for Δ MBP (Mean Blood Pressure): basal MBP 120,9 ± 4,6, n= 6. The protocol:
The acute effect of B-407 on the cardiovascular system was studied. After doses of 10 µg/kg, 30 µg/kg, and 100 µg/kg, administered intravenously (i.v.) the arterial blood pressure and heart rate were evaluated on male Wistar rats weighing 300 g to 350 g. Rats were anesthetized with 40 mg/kg, i.p., of sodium pentobarbital. The left jugular vein was cannulated by means of polyethylene tubing to allow the i.v. administration of drugs. The trachea was cannulated to facilitate ventilation and the right carotid artery was cannulated to record blood pressure and heart beat. A dose of 350 UI/kg, i.v., sodium heparin was administered. The catheter of the artery was connected to a pressure transducer attached to a Berger polygraph. The volume of the i.v. administrations was 0.4 ml/kg. The working protocol was as follows:
A steady-state recording was obtained over a 30 minutes time period. Then a dose of 0.5 µg/kg of noradrenaline followed by 0.5 µg/kg of isoproterenol were administered over 5 to 10 minutes. After 5 min of recording, increasing doses of B-407 were administered every 15 minutes. The mean arterial blood pressure (mm Hg) was obtained by calculating the average of the values of […]. The heart rate (beats/min) was obtained by counting the number of contractions by units of time.

A further data set relates to Swiss female mice. Kind of data set: Barbiturate sleeping time in mice. It counts as in vivo. The note with it: 100 µg/kg,ip, 15 min before pentobarbital sodium 30 mg/kg i.p., n= 12. As to the method:
The effect of B-407 on the time of induction and time of duration of the barbiturate sleeping time was evaluated by determining the time of loss and recovery of the righting reflex. This was carried out in Swiss female mice weighing 20 g to 25 g.
Two groups of 12 mice each were used. One group was treated with B-407 (100 µg/kg, i.p.). Fifteen minutes later, pentobarbital sodium (30 mg/kg, i.p.) was administered. The time of onset (the loss of the righting reflex) and of duration (the elapsed time from the loss of the righting reflex up to its recovery from the barbiturate-induced sleeping) were determined. Full recovery of the righting reflex was assumed when the animal, placed on its back, could recover its normal position at least 3 times during one minute. The control mice group followed the same protocol, but received saline solution instead B-407. The results were expressed as the average ± standard error of each group and the statistical significance of the differences were evaluated by means of the Student's-t-test.

Data set [1] has as its system rat uterus under estrous condition. Description: C1: effect on PGF2α induced in vitro contraction of rat uterus under estrous condition. Particulars: PGF2α 10^-8 M, nutrient solution 0,84. The protocol:
The experimental conditions were identical to those described in part A for the concentration-response curves without spontaneous contractions.
The uterus was allowed to equilibrate in a 10^-8 M PGF2α solution for 2 minutes, then the uterus was washed again during 15 minutes. This whole treatment was repeated twice.
Then, a known concentration of the test prostaglandin was added and no washing was carried out during the following 15 minutes. PGF2α (10^-8 M) was added, washing once after 2 minutes and then twice over a total time period of 15 minutes. The result was expressed as the relationship between the effect of PGF2α after the treatment with B-407 and the sum of the effect of PGF2α (mean of the three initial additions) and the effect of B-407 "per se". The recordings of the contractions and their quantitation were performed as described in (A).
* p < 0.05: Tested vs. nutrient solution by ANOVA and Scheffe. ** p < 0.02: Tested vs. nutrient solution by Student's-t-test. Ratio = Effect of PGF2α after B-407/(Effect of PG F2α before B-407 + Effect of B-407). S.E. = Standard Error
(§1) The frequency and magnitude of the responses were globally evaluated by calculating the total area recorded at a fixed time period as will be further explained. The areas under the curve of the recording paper, over 15 minutes periods, were cut and weighed both in the concentration-response curves and in the potentiating experiments.
(§2) The calibration was made by weighing a piece of paper which corresponded to a tension of 1 g at the working sensitivity along 2 minutes. Therefore, a relationship of area expressed in g/2 min was obtained and then the weights of the areas of the responses were transformed to unities of area. The results were expressed as the mean ± the standard error of the areas obtained. The statistical evaluation of the differences was carried out either by ANOVA or by Student's-t-test, as appropriate.

Data set [2] relates to isolated rat uterus under diestrous condition. Description: B1: effect on isolated uterus of diestrous rat with basal spontaneous contractions (cumulative curves, Krebs solution). The arrangement: species or system Wistar rats. The note with it: basal 5,85. As to the method:
(B1)- Concentration-response curves on isolated rat uterus under diestrous condition were carried out. Wistar rats weighing 250 g to 300 g were employed. The diestrous phase was detected by a daily vaginal smear. The uterus was dissected out and a portion of a horn was placed in a 10 ml organ bath in a similar way to that described in part A. The bath temperature was maintained at 37°C, bubbled with a mixture of 95 % O2 and 5 % CO2 in a Krebs nutrient solution. The organ was left to stabilize for one hour. The isolated uterus presented basal spontaneous contractions under these experimental conditions. Cumulative concentration-response curves were carried out with the addition of either 100 µl or 300 µl of solutions of either natural prostaglandins or B-407 in concentrations of 10^-10 M to 10^-6 M, each 15 minutes without any washing. Uterine contractions and quantitation were performed as described in (A). (B2)- Concentration-response curves in isolated uterus under diestrous (without any spontaneous contractions) were carried out. Sodium diclofenac was added to De Jalon nutrient solution to a final concentration of 4x10^-6 M. The organ was left to stabilize until the absence of spontaneous contractions. Non-cumulative concentration-response curves were obtained. Recordings of the contractions and their quantitation were performed as described in (A).
as §1, §2

Consider `CCCCC(C)(O)C/C=C/[C@H]1[C@H](O)CC(=O)[C@@H]1CCCC/C=C/C(=O)OC` (mixture of isomers) [B-407, trans-Δ^2-15-deoxy-16-hydroxy-16-methyl PGE1 methyl ester], for which the Higher lasting time in the data set on anesthetized rat (10 µg/kg) was 0,66 min; in the data set with anesthetized rat (30 µg/kg), 2,5 min; in the data set with anesthetized rat (100 µg/kg) it was 5,5 min. In addition, the “HR (Heart Rate)” value is 430,6 ± 7,2 Beats / min in the data set with anesthetized rat (10 µg/kg), 420,7 ± 4,1 Beats / min with anesthetized rat (30 µg/kg) and 452,7 ± 16,7 Beats / min in the data set on anesthetized rat (100 µg/kg). Besides, the “Δ MBP (Mean Blood Pressure)” value is on record as -11,0 ± 1,3 mm Hg with anesthetized rat (10 µg/kg), -29,8 ± 3,8 mm Hg in the data set on anesthetized rat (30 µg/kg) and -47,7 ± 3,3 mm Hg in the data set on anesthetized rat (100 µg/kg). Also, the Induction time with Swiss female mice (control 4,52 ± 0,22, p < 0,02) is 3,75 ± 0,19 min. For the same molecule, the Sleeping time with Swiss female mice (control 27,8 ± 3,10, n.s.) is 29,7 ± 2,91 min. Moreover, the “Ratio = Effect of PGF2α after B-407/(Effect of PG F2α before B-407 + Effect of B-407)” value in data set [1] (B-407 3x10^-7 M, p < 0.05) is recorded as 2,06; in data set [1] (B-407 3x10^-8 M), 1,69; in data set [1] (B-407 3x10^-9 M) it was 1,29. Further, the “Area (g of tension/2 min)” value is recorded as 6,46 g of tension/2 min in data set [2] (1x10^-6 M), 7,38 g of tension/2 min in data set [2] (1x10^-7 M), 6,88 g of tension/2 min in data set [2] (1x10^-8 M) and 6,14 g of tension/2 min in data set [2] (1x10^-9 M).
